Literature values, collected in patent EP1385541B1, “IMMUNOSTIMULANT COMPOSITIONS COMPRISING AN AMINOALKYL GLUCOSAMINIDE PHOSPHATE AND QS-21” (priority 2000, dated 2001).
Where two headings read alike, the source gives them in different places.

What was measured:
sheep red blood cells = details: substantially pure QS-21 saponin, as described in U.S. Patent No. 5,057,540

For QS-21, the “hemolysis of sheep red blood cells at concentrations of” value (sheep red blood cells) is listed as at least 25 µg/mL, the critical micellar concentration (in phosphate buffered saline) is listed as ~0.02 % (w/v) and the critical micellar concentration (in water) is listed as “about 0.03 % (w/v)”.
